In the Kinase Knowledgebase extract (Sharma et al. 2016):

Target: PIK3CA (human) (UniProt P42336)
Assay: Assessment of PIK3CA Kinase Activity

Sequence of PIK3CA (human) (P42336 whole entry, looked up): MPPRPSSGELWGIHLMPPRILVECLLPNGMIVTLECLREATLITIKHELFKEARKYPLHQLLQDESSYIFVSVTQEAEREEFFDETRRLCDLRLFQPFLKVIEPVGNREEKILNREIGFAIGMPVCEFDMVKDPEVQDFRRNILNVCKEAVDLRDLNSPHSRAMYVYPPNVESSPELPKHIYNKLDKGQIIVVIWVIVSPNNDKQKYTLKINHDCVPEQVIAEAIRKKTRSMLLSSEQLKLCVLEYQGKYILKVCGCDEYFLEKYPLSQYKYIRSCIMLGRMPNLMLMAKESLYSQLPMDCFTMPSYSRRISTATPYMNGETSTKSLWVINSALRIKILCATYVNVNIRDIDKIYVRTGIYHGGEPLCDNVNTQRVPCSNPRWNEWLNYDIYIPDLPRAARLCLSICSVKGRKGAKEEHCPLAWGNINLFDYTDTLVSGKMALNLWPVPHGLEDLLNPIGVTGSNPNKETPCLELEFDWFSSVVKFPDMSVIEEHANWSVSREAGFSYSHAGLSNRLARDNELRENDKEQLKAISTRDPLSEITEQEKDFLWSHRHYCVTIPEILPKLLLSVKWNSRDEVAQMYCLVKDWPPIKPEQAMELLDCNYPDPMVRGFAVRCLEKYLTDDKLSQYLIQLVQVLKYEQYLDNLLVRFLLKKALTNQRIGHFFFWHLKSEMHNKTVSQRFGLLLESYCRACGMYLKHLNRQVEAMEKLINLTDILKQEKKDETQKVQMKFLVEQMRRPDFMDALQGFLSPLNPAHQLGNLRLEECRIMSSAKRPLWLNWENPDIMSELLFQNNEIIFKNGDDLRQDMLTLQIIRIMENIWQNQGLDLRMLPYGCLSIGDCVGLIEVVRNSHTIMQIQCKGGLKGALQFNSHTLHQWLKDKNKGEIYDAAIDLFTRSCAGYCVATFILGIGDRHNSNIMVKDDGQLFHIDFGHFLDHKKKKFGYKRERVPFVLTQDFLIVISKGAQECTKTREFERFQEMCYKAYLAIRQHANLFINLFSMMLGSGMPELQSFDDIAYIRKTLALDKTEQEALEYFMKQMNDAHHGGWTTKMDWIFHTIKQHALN

| Structure (SMILES) | IC50 [nM] |
| --- | --- |
| O=C(c1nc2c(s1)CCOc1cc(-c3cn[nH]c3)ccc1-2)N1CCN(c2ncccn2)CC1 | < 1000 |
| Cc1nc(-c2nc3c(s2)CCOc2cc(C(C)NC(N)=O)ccc2-3)n(C(C)C)n1 (stereo unspecified) | < 1000 |
| CC(C)n1cnnc1-c1nc2c(s1)CCOc1cc(CNCC(N)=O)ccc1-2 | < 1000 |
| CC(O)C(=O)N1CC(n2cc(-c3ccc4c(c3)OCCc3sc(-c5ncnn5C(C)C)nc3-4)cn2)C1 (stereo unspecified) | < 1000 |
| CC(C)Oc1cc(-c2ccc3c(c2)-c2nc(-c4ncnn4C(C)C)sc2CCO3)ccn1 | < 1000 |
| Fc1ccc(-n2ncnc2-c2cc3c(s2)-c2nc(-c4ccc(N5CCCC5)nc4)ccc2OCC3)c(F)c1 | < 1000 |
| OCCn1cc(-c2ccc3c(c2)OCCc2sc(-c4ncnn4Cc4ccncc4)nc2-3)cn1 | < 1000 |
| COCCN1CCC(c2ccc3c(c2)OCCc2sc(-c4ncnn4C(C)C)nc2-3)CC1 | < 1000 |
| O=C(O)C1CCCN(C(=O)c2nc3c(s2)CCOc2cc(-c4cn[nH]c4)ccc2-3)C1 (stereo unspecified) | < 1000 |
| CC(C)n1ncnc1-c1nc2c(s1)CCOc1ccc(-c3cccnc3F)cc1-2 | < 1000 |
| O=C(c1nc2c(s1)CCOc1cc(-c3cn[nH]c3)ccc1-2)N1CCC(c2ccc(F)cc2F)CC1 | < 1000 |
| CC(C)n1c(-c2nc3c(s2)CCOc2cc(-c4cnn(CCO)c4)ccc2-3)nnc1C(F)(F)F | < 1000 |
| CN(C)[C@@H]1CCN(C(=O)c2nc3c(s2)CCOc2cc(-c4cn[nH]c4)ccc2-3)C1 | < 1000 |
| C[C@H](O)CNC(=O)c1ccc(Cl)c(N(C)C(=O)c2cc3c(s2)-c2ccc(C(=O)NCCS(C)(=O)=O)cc2OCC3)c1 | < 1000 |
| Fc1ccc(-n2ncnc2-c2nc3c(s2)CCOc2cc(-c4cn[nH]c4)ccc2-3)c(F)c1 | < 1000 |
| CC(C)n1ncnc1-c1nc2c(s1)CCOc1ccc(-c3ccc[nH]c3=O)cc1-2 | < 1000 |
| CN(C(=O)c1cc2c(s1)-c1ccc(C(=O)NCCS(C)(=O)=O)cc1OCC2)c1cc(C(=O)N2CCNCC2)ccc1Cl | < 1000 |
| CNC1CCN(C(=O)c2nc3c(s2)CCOc2cc(-c4cn[nH]c4)ccc2-3)C1 (stereo unspecified) | < 1000 |
| CC(=O)N1CC(n2c(Cl)cnc2-c2nc3c(s2)CCOc2cc(-c4cnn(CC(C)(C)O)c4)ccc2-3)C1 | < 1000 |
| CC(C)n1ncnc1-c1nc2c(s1)CCOc1ccc(-c3ccc(N4CCOCC4)nc3)cc1-2 | < 1000 |
| Cc1nc(-c2nc3c(s2)CCOc2cc(C4CN(CCO)C4)ccc2-3)n(C(C)C)n1 | < 1000 |
| CS(=O)(=O)N1CCN(C(=O)c2nc3c(s2)CCOc2cc(-c4cn[nH]c4)ccc2-3)CC1 | < 1000 |
| Fc1ccc(-n2ncnc2-c2cc3c(s2)-c2nc(-c4ccc(NCCN5CCOCC5)nc4)ccc2OCC3)c(F)c1 | < 1000 |

| Structure (SMILES) | IC50 [nM] |
| --- | --- |
| CC(C)n1ncnc1-c1nc2c(s1)CCOc1cc(C3CCN(CCS(=O)(=O)N(C)C)CC3)ccc1-2 | < 1000 |
| CS(=O)(=O)n1cc(-c2ccc3c(c2)OCCc2sc(-c4ncnn4CC(F)(F)F)nc2-3)cn1 | < 1000 |
| Cc1nn(C)c(=O)n1-c1nc2c(s1)CCOc1cc(-c3cnn(CC(C)(C)O)c3)ccc1-2 | < 1000 |
| C[C@H](O)CNC(=O)c1ccc2c(c1)OCCc1sc(-c3ncnn3CC(F)(F)F)nc1-2 | < 1000 |
| O=C(NCC(F)F)c1ccc2c(c1)OCCc1sc(-c3ncnn3CC(F)(F)F)nc1-2 | < 1000 |
| Cc1nc(-c2nc3c(s2)CCOc2cc(-c4ccccc4S(N)(=O)=O)ccc2-3)n(C(C)C)n1 | < 1000 |
| Cc1nc(-c2nc3c(s2)CCOc2cc(-c4cnn(C5CN(CCO)C5)c4)ccc2-3)n(C(C)C)n1 | < 1000 |
| CS(=O)(=O)c1cccc(-c2ccc3c(c2)OCCc2sc(-c4ncnn4CC(F)(F)F)nc2-3)c1 | < 1000 |
| OCC(O)CNc1ccc2c(n1)-c1sc(-c3ncnn3-c3ccc(F)cc3F)cc1CCO2 (stereo unspecified) | < 1000 |
| Cc1noc(C)c1-c1ccc2c(c1)OCCc1sc(C(=O)N(CCO)C(C)C)nc1-2 | < 1000 |
| Cc1nc(-c2nc3c(s2)CCOc2cc(C4CN(C(=O)[C@H](C)O)C4)ccc2-3)n(C(C)C)n1 | < 1000 |
| C[C@@H]1CN(c2ccc3c(n2)-c2sc(-c4ncnn4-c4ccc(F)cc4F)cc2CCO3)C[C@H](C)N1CC(F)F | < 1000 |
| CC(C)N(CCCO)C(=O)c1nc2c(s1)CCOc1cc(-c3cn[nH]c3)ccc1-2 | < 1000 |
| CNC(=O)Cn1ccnc1-c1nc2c(s1)CCOc1cc(-c3cnn(CC(C)(C)O)c3)ccc1-2 | < 1000 |
| CC(C)n1ncnc1-c1nc2c(s1)CCOc1cc(C3CN(Cc4ncco4)C3)ccc1-2 | < 1000 |
| CC(C)n1ncnc1-c1cc2c(s1)-c1ccc(C3CNC3)cc1OCC2 | < 1000 |
| O=C(c1nc2c(s1)CCOc1cc(-c3cn[nH]c3)ccc1-2)N1CCCC1 | < 1000 |
| CC(C)(O)Cn1cc(-c2ccc3c(c2)OCCc2sc(-c4ncnn4Cc4ccncc4)nc2-3)cn1 | < 1000 |
| CNc1ccc(-c2ccc3c(c2)-c2nc(C(=O)N(CCO)C(C)C)sc2CCO3)cn1 | < 1000 |
| Oc1ccc(-c2ccc3c(n2)-c2sc(-c4ncnn4-c4ccc(F)cc4F)cc2CCO3)cn1 | < 1000 |
| Cc1ccncc1-c1ccc2c(c1)-c1nc(C(=O)N(CCO)C(C)C)sc1CCO2 | < 1000 |
| COCCNc1ccc(-c2ccc3c(n2)-c2sc(-c4ncnn4-c4ccc(F)cc4F)cc2CCO3)cn1 | < 1000 |
| CC(C)n1ncnc1-c1nc2c(s1)CCOc1cc(C3CCN(CC(N)=O)CC3)ccc1-2 | < 1000 |

| Structure (SMILES) | IC50 [nM] |
| --- | --- |
| CC(C)N(CCO)C(=O)c1nc2c(s1)CCOc1cc(-c3cnc(N4CCN(C)CC4)nc3)ccc1-2 | < 1000 |
| COCCn1cc(-c2ccc3c(c2)OCCc2sc(-c4ncnn4C(C)C)nc2-3)ccc1=O | < 1000 |
| CC(C)n1ncnc1-c1nc2c(s1)CCOc1cc(-c3cn(CCO)cn3)ccc1-2 | < 1000 |
| CN1CC(Nc2ccc3c(n2)-c2sc(-c4ncnn4-c4ccc(F)cc4F)cc2CCO3)C1 | < 1000 |
| N#CC1CCN(C(=O)c2nc3c(s2)CCOc2cc(-c4cn[nH]c4)ccc2-3)CC1 | < 1000 |
| O=C(O)c1cccc(-c2ccc3c(c2)OCCc2sc(-c4ncnn4CC(F)(F)F)nc2-3)c1 | < 1000 |
| CC(C)n1ncnc1-c1nc2c(s1)CCOc1cc(C3CN(CC(=O)NCC(C)(C)O)C3)ccc1-2 | < 1000 |
| Cc1cncc(-c2ccc3c(c2)-c2nc(-c4ncnn4C(C)C)sc2CCO3)c1 | < 1000 |
| Cc1cccc(N2CCN(C(=O)c3nc4c(s3)CCOc3cc(-c5cn[nH]c5)ccc3-4)CC2)n1 | < 1000 |
| CN(CCO)c1ccc2c(n1)-c1sc(-c3ncnn3-c3ccc(F)cc3F)cc1CCO2 | < 1000 |
| CNC(=O)c1ccc2c(c1)OCCc1cc(C(=O)N(C)c3cc(C(=O)N(C)CCO)ccc3Cl)sc1-2 | < 1000 |
| CC(C)n1cnnc1-c1nc2c(s1)CCOc1cc(CNCC(F)(F)F)ccc1-2 | < 1000 |
| CN1CCN(C(=O)c2nc3c(s2)CCOc2cc(-c4cn[nH]c4)ccc2-3)CC1 | < 1000 |
| O=C(c1nc2c(s1)CCOc1cc(-c3cn[nH]c3)ccc1-2)N1CCCC[C@@H]1CO | < 1000 |
| Cc1nc(-c2nc3c(s2)CCOc2cc(C4CN(CCF)C4)ccc2-3)n(C(C)C)n1 | < 1000 |
| COCCN(C)C(=O)c1nc2c(s1)CCOc1cc(-c3cn[nH]c3)ccc1-2 | < 1000 |
| OCCn1cc(-c2ccc3c(c2)OCCc2sc(-c4ncnn4-c4ccc(F)cc4F)nc2-3)cn1 | < 1000 |
| CC(C)n1nc(N)nc1-c1nc2c(s1)CCOc1cc(C(=O)NC3CN(C)C3)ccc1-2 | < 1000 |
| CN(C(=O)c1cc2c(s1)-c1ccc(C(=O)NCCS(C)(=O)=O)cc1OCC2)c1cc(C(=O)N2CC(F)(F)C2)ccc1Cl | < 1000 |
| Cc1nc(N)ncc1-c1ccc2c(c1)-c1nc(C(=O)N(CCO)C(C)C)sc1CCO2 | < 1000 |
| CC(C)n1ncnc1-c1nc2c(s1)CCOc1ccc(-c3cccn(C)c3=O)cc1-2 | < 1000 |
| COCCN1CCN(C(=O)c2nc3c(s2)CCOc2cc(-c4cn[nH]c4)ccc2-3)CC1 | < 1000 |
| CC(C)(O)Cn1cc(-c2ccc3c(c2)OCCc2sc(-c4ncnn4C4CCN(CCO)CC4)nc2-3)cn1 | < 1000 |

| Structure (SMILES) | IC50 [nM] |
| --- | --- |
| CC(C)NC(=O)CN1CC(c2ccc3c(c2)OCCc2sc(-c4ncnn4C(C)C)nc2-3)C1 | < 1000 |
| CC(C)n1ncnc1-c1nc2c(s1)CCOc1ccc(-c3cccn(CC(N)=O)c3=O)cc1-2 | < 1000 |
| CC(C)n1ncnc1-c1nc2c(s1)CCOc1ccc(-c3ccc(S(N)(=O)=O)cc3)cc1-2 | < 1000 |
| CC(C)n1ncnc1-c1nc2c(s1)CCOc1ccc(C3CCN(C(=O)[C@H](C)O)CC3)cc1-2 | < 1000 |
| CC(C)n1ncnc1-c1nc2c(s1)CCOc1cc(CNc3ccon3)ccc1-2 | < 1000 |
| Cc1ccc(-c2ccc3c(c2)-c2nc(-c4ncnn4C(C)C)sc2CCO3)cn1 | < 1000 |
| CC(C)n1ncnc1-c1nc2c(s1)CCOc1cc(C3CN(C(=O)[C@H](C)O)C3)ccc1-2 | < 1000 |
| O=C(c1nc2c(s1)CCOc1cc(-c3cn[nH]c3)ccc1-2)N1CCC[C@@H](O)C1 | < 1000 |
| CC(C)(C)C1CCN(C(=O)c2nc3c(s2)CCOc2cc(-c4cn[nH]c4)ccc2-3)CC1 | < 1000 |
| O=C(c1nc2c(s1)CCOc1cc(-c3cn[nH]c3)ccc1-2)N1CCCCCCC1 | < 1000 |
| C[C@@H](O)CNC(=O)c1ccc(Cl)c(N(C)C(=O)c2cc3c(s2)-c2ccc(C(=O)NCCS(C)(=O)=O)cc2OCC3)c1 | < 1000 |
| CC(C)n1nc(N)nc1-c1cc2c(s1)-c1ccc(-c3cnn(CC(C)(C)O)c3)cc1OCC2 | < 1000 |
| CN(CC(=O)N1CCOCC1)C(=O)c1nc2c(s1)CCOc1cc(-c3cn[nH]c3)ccc1-2 | < 1000 |
| COCCn1cccc(-c2ccc3c(c2)-c2nc(-c4ncnn4C(C)C)sc2CCO3)c1=O | < 1000 |
| Fc1ccc(-n2ncnc2-c2cc3c(s2)-c2nc(NC4CNC4)ccc2OCC3)c(F)c1 | < 1000 |
| Cc1cc(-c2ccc3c(n2)-c2sc(-c4ncnn4-c4ccc(F)cc4F)cc2CCO3)cnc1N1CCN(C)CC1 | < 1000 |
| Cc1cc(-c2ccc3c(n2)-c2sc(-c4ncnn4-c4ccc(F)cc4F)cc2CCO3)cnc1F | < 1000 |
| CC(C)n1ncnc1-c1nc2c(s1)CCOc1ccc(-c3ccn(C(C)C)c(=O)c3)cc1-2 | < 1000 |
| CC(C)N(CCO)C(=O)c1nc2c(s1)CCOc1cc(-c3cnn(CCN4CCOCC4)c3)ccc1-2 | < 1000 |
| CC(C)C(=O)N1CCN(C(=O)c2nc3c(s2)CCOc2cc(-c4cn[nH]c4)ccc2-3)CC1 | < 1000 |
| CC(C)n1ncnc1-c1nc2c(s1)CCOc1ccc(-c3ccc(=O)n(C)c3)cc1-2 | < 1000 |
| CC(C)n1ncnc1-c1nc2c(s1)CCOc1ccc(C3CN(S(=O)(=O)CCO)C3)cc1-2 | < 1000 |
